The source of these data is patent US10647713B2 (Nimbus Lakshmi, Inc., priority 2016, dated 2020).

This test deals with human TYK2 (JH2domain-pseudokinase) (Homo sapiens (Human), UniProt P29597). Nature of the test: TYK2 JH2 Domain Binding Assay (KINOMEscan, DiscoveRx). As to conditions: 11-point dilution, duplicate. In short, it runs like this: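 TYK2 JH2 (G556–D888)–NFkB DBD fusion, DNA-tagged, from HEK293 extracts (<0.1 nM) competed against immobilised biotinylated ligand for 1 h at room temperature, 0.9% DMSO. Bead-retained kinase quantified by qPCR; Kd from 11-point 3-fold series (top 30,000 nM, duplicate), Hill fit with slope −1.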
Sequence of human TYK2 (JH2domain-pseudokinase) (P29597 556-888): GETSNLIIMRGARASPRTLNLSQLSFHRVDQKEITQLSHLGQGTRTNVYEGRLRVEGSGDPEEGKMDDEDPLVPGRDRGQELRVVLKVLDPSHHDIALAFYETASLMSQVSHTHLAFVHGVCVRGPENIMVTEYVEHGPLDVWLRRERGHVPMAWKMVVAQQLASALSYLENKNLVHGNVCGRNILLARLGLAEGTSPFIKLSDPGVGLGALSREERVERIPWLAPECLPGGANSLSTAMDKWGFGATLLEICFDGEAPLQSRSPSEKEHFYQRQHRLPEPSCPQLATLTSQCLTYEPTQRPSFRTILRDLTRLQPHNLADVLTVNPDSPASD
`COc1c(Nc2cc(NC(=O)[C@@H]3C[C@@H]3F)nc3[nH]c(C)nc23)cccc1-c1ncn(C)n1` [I-266, (1S,2S)-2-fluoro-N-(7-((2-methoxy-3-(1-methyl-1H-1,2,4-triazol-3-yl)phenyl)amino)-2-methyl-3H-imidazo[4,5-b]pyridin-5-yl)cyclopropane-1-carboxamide] displayed a dissociation constant Kd of 0.5 to 1 nM.

In the case of `COc1c(Nc2cc(NC(=O)[C@H]3C[C@H]3F)nc3[nH]c(C)nc23)cccc1-c1ncn(C)n1` [I-267, (1R,2R)-2-fluoro-N-(7-((2-methoxy-3-(1-methyl-1H-1,2,4-triazol-3-yl)phenyl)amino)-2-methyl-3H-imidazo[4,5-b]pyridin-5-yl)cyclopropane-1-carboxamide], the Kd was 1 to 10 nM.

In the case of `Cc1nc2c(Nc3ccc(-c4cnn(C)c4)cc3N(C)S(C)(=O)=O)cc(NC(=O)[C@@H]3C[C@@H]3F)nc2[nH]1` [I-268, (1S,2S)-2-fluoro-N-(2-methyl-7-((4-(1-methyl-1H-pyrazol-4-yl)-2-(N-methylmethylsulfonamido)phenyl)amino)-3H-imidazo[4,5-b]pyridin-5-yl)cyclopropane-1-carboxamide], the dissociation constant (Kd) lay in the range of 0.1 to 0.5 nM.

For the molecule `Cc1nc2c(Nc3ccc(-c4cnn(C)c4)cc3N(C)S(C)(=O)=O)cc(NC(=O)[C@H]3C[C@H]3F)nc2[nH]1` [I-269, (1R,2R)-2-fluoro-N-(2-methyl-7-((4-(1-methyl-1H-pyrazol-4-yl)-2-(N-methylmethylsulfonamido)phenyl)amino)-3H-imidazo[4,5-b]pyridin-5-yl)cyclopropane-1-carboxamide], the dissociation constant (Kd) was 0.1 to 0.5 nM.

Take `CN(c1cc(-c2cncn2C)ccc1Nc1cc(NC(=O)[C@@H]2CC2(F)F)nc2[nH]c(C(F)F)nc12)S(C)(=O)=O` [I-270, (S)—N-(2-(difluoromethyl)-7-((4-(1-methyl-1H-imidazol-5-yl)-2-(N-methylmethylsulfonamido)phenyl)amino)-3H-imidazo[4,5-b]pyridin-5-yl)-2,2-difluorocyclopropane-1-carboxamide]: the Kd lay in the range of 0.1 to 0.5 nM.

On to `CN(c1cc(-c2cncn2C)ccc1Nc1cc(NC(=O)[C@H]2CC2(F)F)nc2[nH]c(C(F)F)nc12)S(C)(=O)=O` [I-271, (R)—N-(2-(difluoromethyl)-7-((4-(1-methyl-1H-imidazol-5-yl)-2-(N-methylmethylsulfonamido)phenyl)amino)-3H-imidazo[4,5-b]pyridin-5-yl)-2,2-difluorocyclopropane-1-carboxamide], for which the Kd lay in the range of 1 to 10 nM.

`CS(=O)(=O)c1cc(C2CC2)ccc1Nc1cc(Nc2cccc(C(F)(F)F)n2)nc2[nH]c(C(F)F)nc12` [I-272] yielded an equilibrium dissociation constant (Kd) of 1 to 10 nM.

As to `Cc1nc2c(Nc3ccc(C4CC4)cc3S(C)(=O)=O)cc(Nc3cccc(C(F)(F)F)n3)nc2[nH]1` [I-273], the Kd fell in the range of 0.5 to 1 nM.

Take `Cc1nc2c(Nc3ccc(-c4cncn4C)cc3N(C)S(C)(=O)=O)cc(NC(=O)[C@@H]3CC3(F)F)nc2[nH]1` [I-274, (S)-2,2-difluoro-N-(2-methyl-7-((4-(1-methyl-1H-imidazol-5-yl)-2-(N-methylmethylsulfonamido)phenyl)amino)-3H-imidazo[4,5-b]pyridin-5-yl)cyclopropane-1-carboxamide]: the equilibrium dissociation constant (Kd) lay within 0.1 to 0.5 nM.

`Cc1nc2c(Nc3ccc(-c4cncn4C)cc3N(C)S(C)(=O)=O)cc(NC(=O)[C@H]3CC3(F)F)nc2[nH]1` [I-275, (R)-2,2-difluoro-N-(2-methyl-7-((4-(1-methyl-1H-imidazol-5-yl)-2-(N-methylmethylsulfonamido)phenyl)amino)-3H-imidazo[4,5-b]pyridin-5-yl)cyclopropane-1-carboxamide]: the Kd was in the range of 1 to 10 nM.

Consider `Cc1cc(-c2ccc(Nc3cc(Nc4cccc(C#N)n4)nc4[nH]c(C(F)F)nc34)c(S(C)(=O)=O)c2)nn1C` [I-277], for which the Kd is 0.1 to 0.5 nM.

`Cc1nc2c(Nc3ccc([C@@H]4CCCCO4)cc3S(C)(=O)=O)cc(NC(=O)[C@H]3CC3(F)F)nc2[nH]1` [I-278, (R)-2,2-difluoro-N-(2-methyl-7-((2-(methylsulfonyl)-4-((S)-tetrahydro-2H-pyran-2-yl)phenyl)amino)-3H-imidazo[4,5-b]pyridin-5-yl)cyclopropane-1-carboxamide] displayed a dissociation constant Kd of 0.1 to 0.5 nM.

As for `Cc1nc2c(Nc3ccc([C@@H]4CCCCO4)cc3S(C)(=O)=O)cc(NC(=O)[C@@H]3CC3(F)F)nc2[nH]1` [I-279, (S)-2,2-difluoro-N-(2-methyl-7-((2-(methylsulfonyl)-4-((S)-tetrahydro-2H-pyran-2-yl)phenyl)amino)-3H-imidazo[4,5-b]pyridin-5-yl)cyclopropane-1-carboxamide], the Kd was in the range of 1 to 10 nM.

`CS(=O)(=O)c1cc([C@H]2CCCCO2)ccc1Nc1cc(NC(=O)[C@H]2CC2(F)F)nc2[nH]c(C(F)F)nc12` [I-280, (R)—N-(2-(difluoromethyl)-7-((2-(methylsulfonyl)-4-((R)-tetrahydro-2H-pyran-2-yl)phenyl)amino)-3H-imidazo[4,5-b]pyridin-5-yl)-2,2-difluorocyclopropane-1-carboxamide] gave a Kd of 0.5 to 1 nM.

`CS(=O)(=O)c1cc([C@H]2CCCCO2)ccc1Nc1cc(NC(=O)[C@@H]2CC2(F)F)nc2[nH]c(C(F)F)nc12` [I-281, (S)—N-(2-(difluoromethyl)-7-((2-(methylsulfonyl)-4-((R)-tetrahydro-2H-pyran-2-yl)phenyl)amino)-3H-imidazo[4,5-b]pyridin-5-yl)-2,2-difluorocyclopropane-1-carboxamide]: the Kd was in the range of 1 to 10 nM.

On to `Cc1nc2c(Nc3ccc(C4=NC(C)(C)CO4)cc3S(C)(=O)=O)cc(NC(=O)[C@@H]3C[C@@H]3F)nc2[nH]1` [I-282, (1S,2S)—N-(7-((4-(4,4-dimethyl-4,5-dihydrooxazol-2-yl)-2-(methylsulfonyl)phenyl)amino)-2-methyl-3H-imidazo[4,5-b]pyridin-5-yl)-2-fluorocyclopropane-1-carboxamide], for which the dissociation constant (Kd) lay in the range of 1 to 10 nM.

As to `CC1(C)CN=C(c2ccc(Nc3cc(NC(=O)C4CC4)nc4[nH]c(C(F)F)nc34)c(S(C)(=O)=O)c2)O1` [I-283, N-(2-(difluoromethyl)-7-((4-(5,5-dimethyl-4,5-dihydrooxazol-2-yl)-2-(methylsulfonyl)phenyl)amino)-3H-imidazo[4,5-b]pyridin-5-yl)cyclopropanecarboxamide], the dissociation constant Kd lay within 1 to 10 nM.

In the case of `Cc1nc2c(Nc3ccc(C4=NCC(C)(C)O4)cc3S(C)(=O)=O)cc(NC(=O)C3CC3)nc2[nH]1` [I-284, N-(7-((4-(5,5-dimethyl-4,5-dihydrooxazol-2-yl)-2-(methylsulfonyl)phenyl)amino)-2-methyl-3H-imidazo[4,5-b]pyridin-5-yl)cyclopropanecarboxamide], the Kd lay within 0.5 to 1 nM.

On to `CP(C)(=O)c1cc(C2CC2)ccc1Nc1cc(NC(=O)C2CC2)nc2[nH]c(C(F)F)nc12` [I-285, N-(7-((4-cyclopropyl-2-(dimethylphosphoryl)phenyl)amino)-2-(difluoromethyl)-3H-imidazo[4,5-b]pyridin-5-yl)cyclopropanecarboxamide], for which the Kd was 0.1 to 0.5 nM.

In turn, `Cc1nc2c(Nc3ccc(C4CC4)cc3P(C)(C)=O)cc(NC(=O)C3CC3)nc2[nH]1` [I-286, N-(7-((4-cyclopropyl-2-(dimethylphosphoryl)phenyl)amino)-2-methyl-3H-imidazo[4,5-b]pyridin-5-yl)cyclopropanecarboxamide] yielded a dissociation constant (Kd) of 0.1 to 0.5 nM.
